Laboratory results taken from ChEMBL document CHEMBL1201862, “PubChem BioAssay data set” (2004).
Active and inactive are the calls of the source.

Assays:
Ephrin type-A receptor 4 = Ephrin type-A receptor 4 (Mus musculus, UniProt Q03137); assay: inhibitors of EphA4 binding to KYL peptide, primary screen, biochemical, colorimetric, mouse EphA4 (AID 689); assay type: functional
[1] = cytotoxicity toward NIH3T3 fibroblasts, dose response, counter-screen, cell-based, ATP luminescence, mouse fibroblasts (AID 2010); assay type: functional;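 note: cells exposed to compound for about 90 hours before reading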
[2] = inhibitors of intracellular T. cruzi replication, confirmation, NIH3T3 host cells, beta-gal luminescence (AID 2044); assay type: functional, cell-based;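 note: intracellular parasites grown in NIH/3T3 mouse fibroblasts as host cells; luminescent beta-galactosidase reporter signal from transgenic T. cruzi replicating inside host cells; inhibitors lower the luminescence signal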
[3] = biological target: T1, Voltage-gated inwardly rectifying potassium channel KCNH2 (Homo sapiens, UniProt Q12809); assay: hERG protection from proarrhythmic block, potency, dose response, cell-based, thallium flux (AID 2121); assay type: ADME
HEK293 = assay: inhibitors of LMP1-driven NF-kB reporter, dose response, cell-based, HEK293, luciferase, cherry-pick (AID 588343); assay type: functional; conditions: Homo sapiens
[4] = Luminescence Cell-Based Dose Response HTS to Identify Inhibitors of 5'UTR Stem-Loop Driven Prion Protein mRNA Translation in H4 Neuroglioblastoma Cells. [Related pubchem assays: 1827 (Project Summary), 1813 (Primary HTS)]; assay type: functional
cells [5] = assay type: functional, cell-based
[6] = NIH-3T3 fibroblast cytotoxicity, dose response, cytotoxicity control, cell-based, fluorescence, Alamar Blue, secondary assay (AID 2327); assay type: functional;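 note: NIH-3T3 mouse fibroblasts cultured with fluconazole at 8 µg/mL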
[7] = inhibitors of SNCA 5'UTR-driven reporter translation, confirmation, H4 neuroglioma cells, luminescence (AID 1988); assay type: functional, cell-based
[8] = Luminescence Cell-Based Dose Retest to Confirm Inhibitors of Cancer Stem Cells. [Related pubchem assays (depositor defined):AID2717, AID2721]; assay type: functional; conditions: Homo sapiens
cells [9] = assay type: functional, cell-based; remark: listed apart in the source
INS1 = assay: beta cell apoptosis inhibitors, cytokine rescue, dose response, luminescence, retest (AID 449756); assay type: functional, cell-based; conditions: Rattus norvegicus;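 note: cell death triggered by IL-1 beta plus TNF-alpha plus IFN-gamma mixture; protective hits raise ATP signal compared with cytokine alone wells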
Nonstructural protein 1 = Nonstructural protein 1 (Influenza A virus, UniProt Q194T2); assay type: functional, Influenza A virus (A/California/07/2009(H1N1))
[10] = Vero cell cytotoxicity, dose response, cytotoxicity control for Vif-APOBEC3G degradation inhibitor project, Vero cells (AID 1117358); assay type: functional; conditions: Human immunodeficiency virus 1, Vero
[11] = C. albicans growth with fluconazole, confirmation, fluorescence, retest (AID 2467); assay type: functional, cell-based
[12] = inhibitors of firefly luciferase expression or activity, dose response, H4 neuroglioma cells, luminescence (AID 1990); assay type: functional, cell-based
[13] = reduction of Shn3 3'UTR firefly luciferase signal, dose response, Schnurri-3 inhibitor project, cell-based, Clone20 osteoblasts, cherry-pick, set 2 (AID 720490); assay type: functional;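 note: actives lower the luminescence signal as inhibitors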
[14] = Shn3 3'UTR reporter inhibitors, dose response, cell-based, Clone20 osteoblasts, firefly luciferase, cherry-picked (AID 624132); assay type: functional;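 note: firefly luciferase luminescence from reporter carrying the Shn3 3'UTR in osteoblasts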
Cytochrome P450 3A4 = Cytochrome P450 3A4 (Homo sapiens, UniProt P08684);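 note: CYP3A4 tested as one member of a cytochrome P450 panel screen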
[15] = control 3'UTR Renilla luciferase suppression, dose response, counter-screen for Shn3 inhibitor project, cell-based, Clone20-Shn3RL, cherry-picked (AID 624133); assay type: functional
[16] = biological target: T1, Voltage-gated inwardly rectifying potassium channel KCNH2; conditions: Potency
[17] = HepG2 cell cytotoxicity, dose response, cytotoxicity control for Shn3 inhibitor project, CellTiter-Glo, cherry-picked (AID 624134); assay type: functional, cell-based
Cytochrome P450 1A2 = biological target: T2, Cytochrome P450 1A2 (Homo sapiens, UniProt P05177);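 note: PubChem cytochrome P450 panel assay, CYP1A2 panel member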
T2 sequence (P05177 whole entry): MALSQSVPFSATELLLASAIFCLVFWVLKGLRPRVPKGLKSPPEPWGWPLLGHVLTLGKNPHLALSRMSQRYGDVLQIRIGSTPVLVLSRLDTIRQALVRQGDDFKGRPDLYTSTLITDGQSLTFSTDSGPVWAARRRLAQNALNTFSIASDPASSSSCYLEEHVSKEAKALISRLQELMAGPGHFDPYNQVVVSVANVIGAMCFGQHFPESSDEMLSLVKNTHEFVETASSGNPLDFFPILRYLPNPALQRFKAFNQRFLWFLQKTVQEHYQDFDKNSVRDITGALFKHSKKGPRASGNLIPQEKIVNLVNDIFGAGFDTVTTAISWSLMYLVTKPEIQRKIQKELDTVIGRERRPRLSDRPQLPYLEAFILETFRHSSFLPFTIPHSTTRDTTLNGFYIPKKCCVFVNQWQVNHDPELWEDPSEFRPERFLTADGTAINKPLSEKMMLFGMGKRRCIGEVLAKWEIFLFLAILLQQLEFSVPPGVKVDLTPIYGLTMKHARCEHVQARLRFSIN

[18] = inhibitors of control Renilla luciferase reporter, dose response, counter-screen for Shn3 3'UTR targeting project, Clone20-Shn3RL cells, dual-Glo, cherry-pick, set 2 (AID 720724); assay type: functional, cell-based; conditions: Dual-Go Shn3RL
[19] = A Cell Based Secondary Assay To Explore Cytotoxicity of Compounds that Sensitize Mycobacterium Tuberculosis to Beta-Lactam Antibiotics.; assay type: functional
[20] = SNU-C1 cell viability reduction, dose response, CellTiter-Glo luminescence (AID 1117323); assay type: functional, cell-based
[21] = cytotoxicity toward HT-29 cells – cell-based, CellTiter-Glo luminescence, IC50, dose response (AID 1117330); assay type: functional
[22] = HeLa 2N DNA content increase, dose response, cell-based, IC50 (AID 1117349); assay type: functional
[23] = cytotoxicity toward Colo320 cells – cell-based, CellTiter-Glo luminescence, IC50, dose response (AID 1117334); assay type: functional; conditions: COLO 320
[24] = RKO cell viability reduction, dose response, CellTiter-Glo luminescence (AID 1117322); assay type: functional
[25] = HCT116 cell viability decrease, GSK3B pretreatment – CellTiter-Glo, IC50, dose response (AID 1117339); assay type: functional; conditions: HCT-116
[26] = Concentration-dependent survival of SW480 colon cancer line, luminescence detection with CellTiter-Glo, half-maximal inhibitory concentration (AID 1117338); assay type: functional
[27] = CellTiter-Glo luminescent dose response of DLD-1 viability loss (AID 1117352); assay type: functional
[28] = cytotoxicity toward HCT116 cells – cell-based, CellTiter-Glo luminescence, IC50, dose response (AID 1117332); assay type: functional; conditions: HCT-116
[29] = HeLa 4N DNA content increase, dose response, cell-based, IC50 (AID 1117351); assay type: functional

T1 sequence (Q12809 whole entry): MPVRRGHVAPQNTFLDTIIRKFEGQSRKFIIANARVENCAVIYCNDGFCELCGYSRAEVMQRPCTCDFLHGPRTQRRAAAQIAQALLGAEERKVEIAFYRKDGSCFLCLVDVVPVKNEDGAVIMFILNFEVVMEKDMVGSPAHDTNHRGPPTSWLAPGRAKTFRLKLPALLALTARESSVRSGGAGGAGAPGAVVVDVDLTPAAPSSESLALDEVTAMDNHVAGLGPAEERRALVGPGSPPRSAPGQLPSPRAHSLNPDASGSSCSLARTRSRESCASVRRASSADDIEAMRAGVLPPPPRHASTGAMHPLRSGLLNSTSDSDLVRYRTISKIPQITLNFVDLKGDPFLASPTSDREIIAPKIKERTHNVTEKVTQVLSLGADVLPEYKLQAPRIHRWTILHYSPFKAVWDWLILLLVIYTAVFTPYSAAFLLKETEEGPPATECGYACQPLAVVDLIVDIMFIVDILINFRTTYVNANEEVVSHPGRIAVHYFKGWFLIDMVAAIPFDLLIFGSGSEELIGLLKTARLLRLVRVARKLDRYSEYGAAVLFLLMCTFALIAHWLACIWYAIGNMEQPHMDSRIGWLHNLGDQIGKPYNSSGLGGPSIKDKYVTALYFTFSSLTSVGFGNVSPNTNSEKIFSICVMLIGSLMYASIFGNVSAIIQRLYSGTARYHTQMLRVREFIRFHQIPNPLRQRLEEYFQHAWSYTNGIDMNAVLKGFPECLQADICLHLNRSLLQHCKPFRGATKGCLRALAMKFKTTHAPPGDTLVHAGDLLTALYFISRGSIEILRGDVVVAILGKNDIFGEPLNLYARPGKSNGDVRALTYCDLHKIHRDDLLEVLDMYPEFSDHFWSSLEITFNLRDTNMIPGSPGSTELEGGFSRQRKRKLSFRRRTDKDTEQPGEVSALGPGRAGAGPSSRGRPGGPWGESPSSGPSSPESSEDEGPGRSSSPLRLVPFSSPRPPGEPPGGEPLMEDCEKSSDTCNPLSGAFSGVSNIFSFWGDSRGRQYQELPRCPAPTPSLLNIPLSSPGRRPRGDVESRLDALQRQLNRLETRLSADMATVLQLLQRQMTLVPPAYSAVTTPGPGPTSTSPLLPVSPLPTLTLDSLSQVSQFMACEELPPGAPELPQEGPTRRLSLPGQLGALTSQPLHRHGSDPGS
Sequence of Cytochrome P450 3A4 (P08684 whole entry): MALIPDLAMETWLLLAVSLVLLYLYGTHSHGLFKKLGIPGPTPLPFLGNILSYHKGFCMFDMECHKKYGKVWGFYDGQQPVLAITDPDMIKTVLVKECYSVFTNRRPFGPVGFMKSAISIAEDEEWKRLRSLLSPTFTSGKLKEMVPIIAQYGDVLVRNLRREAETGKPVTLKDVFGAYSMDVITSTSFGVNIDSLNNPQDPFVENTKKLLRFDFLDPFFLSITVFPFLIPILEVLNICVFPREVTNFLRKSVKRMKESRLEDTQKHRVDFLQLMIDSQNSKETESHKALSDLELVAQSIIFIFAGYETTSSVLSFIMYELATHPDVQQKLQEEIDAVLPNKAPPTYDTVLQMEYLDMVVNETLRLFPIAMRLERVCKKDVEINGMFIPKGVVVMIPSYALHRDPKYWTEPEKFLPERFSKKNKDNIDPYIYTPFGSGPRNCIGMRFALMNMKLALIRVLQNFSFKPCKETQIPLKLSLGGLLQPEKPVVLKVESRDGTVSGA
Sequence of Ephrin type-A receptor 4 (Q03137 whole entry): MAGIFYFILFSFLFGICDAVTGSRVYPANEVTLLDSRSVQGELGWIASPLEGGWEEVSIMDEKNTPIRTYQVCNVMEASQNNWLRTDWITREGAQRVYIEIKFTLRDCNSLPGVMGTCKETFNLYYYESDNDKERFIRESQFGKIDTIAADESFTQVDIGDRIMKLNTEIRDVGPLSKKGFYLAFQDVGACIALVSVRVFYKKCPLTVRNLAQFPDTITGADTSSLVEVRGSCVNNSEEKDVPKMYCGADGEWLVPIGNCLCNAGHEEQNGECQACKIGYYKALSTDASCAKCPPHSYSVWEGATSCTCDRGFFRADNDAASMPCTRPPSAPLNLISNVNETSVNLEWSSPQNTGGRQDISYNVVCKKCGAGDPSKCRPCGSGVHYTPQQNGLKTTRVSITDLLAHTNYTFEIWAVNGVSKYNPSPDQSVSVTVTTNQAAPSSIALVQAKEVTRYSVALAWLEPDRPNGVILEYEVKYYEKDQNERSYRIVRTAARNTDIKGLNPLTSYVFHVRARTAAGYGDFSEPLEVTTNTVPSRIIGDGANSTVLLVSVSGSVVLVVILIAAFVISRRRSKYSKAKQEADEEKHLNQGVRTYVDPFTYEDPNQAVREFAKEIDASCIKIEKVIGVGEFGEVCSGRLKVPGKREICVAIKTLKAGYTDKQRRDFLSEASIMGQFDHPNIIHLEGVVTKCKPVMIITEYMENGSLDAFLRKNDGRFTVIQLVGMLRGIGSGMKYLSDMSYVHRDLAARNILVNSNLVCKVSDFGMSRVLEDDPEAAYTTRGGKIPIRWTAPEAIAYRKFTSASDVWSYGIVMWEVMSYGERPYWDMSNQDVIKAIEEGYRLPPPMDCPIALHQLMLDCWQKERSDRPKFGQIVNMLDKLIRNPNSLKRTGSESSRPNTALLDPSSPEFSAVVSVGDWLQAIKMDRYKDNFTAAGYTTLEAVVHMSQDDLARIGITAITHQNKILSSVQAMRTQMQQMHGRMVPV
Sequence of Nonstructural protein 1 (Q194T2 whole entry): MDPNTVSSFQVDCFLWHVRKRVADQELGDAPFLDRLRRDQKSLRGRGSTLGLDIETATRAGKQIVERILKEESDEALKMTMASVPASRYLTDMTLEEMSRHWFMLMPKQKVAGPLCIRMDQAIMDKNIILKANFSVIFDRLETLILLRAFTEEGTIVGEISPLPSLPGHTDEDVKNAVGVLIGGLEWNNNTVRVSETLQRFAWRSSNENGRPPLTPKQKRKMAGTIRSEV

Cc1ccc(C)c(N(CC(=O)N/N=C/c2ccc(-c3ccc([N+](=O)[O-])cc3)o2)S(=O)(=O)c2ccccc2)c1
> 30 µM (not active): EC50 [1]
> 100 µM (not active): IC50 (Ephrin type-A receptor 4)
active: EC50 [2] 1.65 µM

CC(C)c1ccc(/C=N/n2c(S)nnc2COc2ccccc2)cc1
active: EC50 [3] 7.6 µM

Oc1ccccc1/C=N/Nc1nccnc1Cl
active: AC50 (HEK293) 14.9 µM | EC50 [4] 9.43 µM | EC50 (cells [5]) 7.95 µM | EC50 [6] 38.5 µM | EC50 [7] 4.65 µM | AC50 [8] 6.46 µM | EC50 (cells [9]) 9.82 µM | AC50 (INS1) 0.747 µM | IC50 (Nonstructural protein 1) 15.9 µM | CC50 [10] 8.61 µM | EC50 [11] 1.06 µM | EC50 [12] 9.08 µM

Nc1ncnc2c1c(-c1ccc(Oc3ccccc3)cc1)cn2C1CCCC1
inactive: AC50 [17] > 70 µM
inconclusive: AC50 (Cytochrome P450 3A4) | AC50 [16] 5.01 µM | AC50 (Cytochrome P450 1A2) 15.8 µM
active: AC50 [13] 4.83 µM | AC50 [14] 0.658 µM | AC50 [15] 31.7 µM | AC50 [8] 3.03 µM | AC50 [18] 56.8 µM | CC50 [19] 0.802 µM

Cc1cc(O)c2c3c4c(cc(O)c13)C(C)(C)C(=O)c1c(O)cc(O)c(c1-4)C2=O [HELIOMYCIN]
inactive: IC50 [22] > 10 µM | IC50 [29] > 10 µM
active: IC50 [20] 0.332 µM | IC50 [21] 3.01 µM | IC50 [23] 0.082 µM | IC50 [24] 0.0754 µM | IC50 [25] 0.0574 µM | IC50 [26] 0.058 µM | IC50 [27] 0.0709 µM | IC50 [28] 0.0775 µM
